Series [1] relates to K562 cells. The experiment in a line: K562 cell cycle analysis. The class given is cell-based, human. As to conditions: 5 µM, after 24 h; lesser extent after 48 h. As to the method:
BK124.1 or DMSO was added to cells and after 24 or 48 h incubation. Cells were fixed and stained with 50 µg/mL propidium iodide (Sigma-Aldrich, St. Louis, MO, USA) with 50 µg/mL DNAse-free RNase. The cell cycle was analyzed on a FACSCalibur cytometer (Becton Dickinson, Franklin Lakes, NJ, USA) using ModFit LT 3.2 software (Verity Software House, Topsham, ME, USA). […]
incubated overnight at 37 °C and analyzed using an iMark Microp late absorbance reader (Bio-Rad, Hercules, CA, USA). Results were calculated relative to control cells treated with DMSO only.
[…] CD34+ cells were plated at a concentration of 2.5 × 10^5 cells/mL in a 24-well plate. […] A f t e r a further 24 hours, cells were harvested and stained according to the manufacturer's protocol using the Annexin V-FITC kit for the detection of apoptosis (BD, Franklin Lakes, NJ, USA). Stained cells were immediately analyzed on a BD FACSCalibur using CellQuest softwa re (BD, Franklin Lakes, NJ, USA).
Cells were seeded at a concentration of 1-2 × 10^5 cells/mL in a 6-well plate. After 24 hours of pre-incubation, BK124.1 in DMSO was added to the cells (vDMSO/vmedium), and incubated for 24 or 48 hours.
After incubation, cells were washed twice with ice-cold PBS (Mg2+ and Ca2+-free), resuspended in ice-cold 70% ethanol, and placed at -20 °C for 24 hours. […]
Flow cytometry analysis of CD243 (P-glycoprotein) […]

A short description of series [2]: Pharmacokinetics in Wistar rats. Type of series: in vivo, Wistar rat. As to the method:
Five Wistar rats were injected intravenously (IV) with BK124.1 at 5 mg/kg or 10 mg/kg concentration, in 10% Solutol HS15/10% ethanol. The blood was taken from each animal after 5, 15, and 30 min, 1, 2, 6, and 24 h post-injection. Blood BK124.1 concentration was measured using mass spectrometry.

The subject of series [3] is K562 cells. The series is described as follows: K562 xenogeneic mouse model, tumor growth. Type of series: in vivo, NSG mice. As to conditions: for Tumor weights: mean ± SD, N=4, tumor growth control 9.2±2.1. As to the method:
Statistical analysis was performed using GraphPad Prism version 9.1.0. All in vitro experiments were performed in at least triplicate biological replicates and statistical results are expressed as mean ± standard deviation (SD). Statistical data of animal experiments are expressed as mean ± standard error of the mean (SEM). For experiments involving patients, the normality of the distribution was checked using the Shapiro–Wilk test and the statistical analysis was performed using one-way ANOVA with Dunnett’s post-test * p < 0.05, ** […], *** 0.001 > p > 0.0001, **** p < 0.0001.
Table S3. […] Control and
IP, intraperitoneal administration; O, orally

In series [4] the test system is K562 cells. The series is described as follows: MTT viability test, K562. The settings on record: Homo sapiens, K562; MTT, 48 h. The class given is cell-based. As to the method:
CML cell line K562 CCL-243™ (BCR-ABL^+) was purchased from the ATCC® (Manassas, VA, USA). Cells were grown in RPMI 1640 medium containing HEPES (Biowest, Nuaillé, France) with 2 mM GlutaMAX (Gibco, Grand Island, NY, USA), supplemented with 10% fetal bovine serum (Sigma-Aldrich, St. Louis, MO, USA) and […] (Gibco, Grand Island, NY, USA) and 0.1 µM Vincristine (for K562-MDR1).
Cells were seeded in 96-well plates; after 24 h, medium with the appropriate drug concentration was added to each well. After 48 h, Tetrazolium Bromide (Sigma-Aldrich, St. Louis, MO, USA) was added to each well for 2–3 h. After that, cells were lysed and formazan crystals were dissolved. Absorbance was read using an iMark Microplate absorbance reader (Bio-Rad, Hercules, CA, USA). Results were calculated relative to cells treated with DMSO only. […]
Cells were seeded in 96-well plates at 7 × 10^3 cells/well in 50 µL of complete medium (for K562 or K562-MDR1) or at 50 × 10^3 cells/well in 50 µL of complete medium (CD34+ cells). After 24 hours, 50 µL of medium with the appropriate drug concentration was added to each well. The final DMSO concentration per well was 1% for K562 and K562-MDR1 and 0.1% for CD34+ cells. After 48 hours, 20 µL of Tetrazolium Bromide (Sigma-Aldrich, St. Louis, MO, USA) at a concentration of 5 mg/mL was added to each well. Cells were incubated for 2-3 hours in a cell culture incubator, and then 10% SDS with 1% HCl was added to each well to lyse the cells and dissolve the formazan crystals. Plates were […]
(Formazan colour is commonly taken as a measure of viable cells.)

Structures are written as SMILES.

What is called half-life is the time in which the quantity being followed falls by half. High values mean slow loss, low ones fast loss. Broadly, the IC50 is the midpoint of a concentration-inhibition curve. A higher IC50 goes with a need for much substance. In the case of `CCC12C(=O)C(CC)(C(c3ccccc3)=C1c1ccccc1)C1C(=O)N(CC(O)CNC(C)C)C(=O)C12` (centres unmarked) [BK124.1, 4-[2-hydroxy-3-(propan-2-ylamino)propyl]-1,7-diethyl-8,9-diphenyl-4-azatricyclo [5.2.1.02,6]dec-8-ene-3,5,10-trione], in series [1], the Cell cycle effect entry is given as “profound G2/M arrest”. In addition, the “Time BK124.1 remains detectable in the peripheral blood” value in series [2] (IV 10 mg/kg (Figure 1A)) is 24 h. Besides, the half-life in series [2] (Wistar, rat, IV 10 mg/kg, blood) was 4.39 h. Besides, the Tumor weights in series [3] (20 mg/kg IP daily 14 days) was 1.6 ± 1.6 g; in series [3] (30 mg/kg IP daily 14 days), 1.9 ± 1.8 g. In series [3] (BK124.1 20 or 30 mg/kg IP, imatinib 100 mg/kg orally, hydroxyurea 500 mg/kg IP, 1 x daily), the “Tumor growth versus control groups” value is recorded as “effectively inhibited”. In series [3] (prolonged treatment (days 4-17), IP 20 or 30 mg/kg, comparable with hydroxyurea or imatinib), the Tumor volume entry is given as “significant reduction in tumor volume”. Moreover, in series [4], the IC50 amounted to 2.5 µM.

For the origin of these results see paper PMC9332833 (Cancers, 2022).
